Source: patent US10577315B2, “Compositions and methods for treatment of prostate carcinoma” (Pellficure Pharmaceuticals, Inc., priority 2014, dated 2020)

Assays:
Assay type in all cases: cell-based
[1] = tested on: human fibrosarcoma HT1080 cells; assay: Dose response of 1,4-naphthoquinone analogs in human fibrosarcoma cells HT1080 (WST-1, 24 h)
Method: (§1) 100 microliters of human fibrosarcoma HT1080 cells were plated at a density of 8000 cells/well in 96-well plates (triplicates) in growing medium containing 10% Fetal Bovine Serum, penicillin/streptomycin, and glutamine. The next day, increasing concentrations of a 1,4-naphthoquinone analog (diluted from 10 mM DMSO stock solutions) were added. DMSO used as solvent for all analogs, was kept constant through the 96-well plates. The control consisted of DMSO alone. The cells were subsequently incubated for 24 hours at 37° C. and 5% CO2 in normal cell growth conditions. Cell viability was assessed by adding 9 μL/well of WST-1 reagent (Clontech), which measured mitochondrial activity of live cells. […] The incubation time was 3 hours at 37° C. Optical density of the cell samples was measured at 460 nm, by using plate reader Spectra Max 250 (Molecular Devices). The drug was determined to be cytotoxic when OD values show an inverse correlation with analog concentrations.

[2] = tested on: human breast cancer SKBR-3 cells; assay: Dose response of 1,4-naphthoquinone analogs in human breast cancer cells SKBR-3 (WST-1, 24 h)
Method: as §1, with “breast cancer SKBR-3” for “fibrosarcoma HT1080”

[3] = tested on: PTEN-P2/GFP prostate cancer cells; assay: Effect of 1,4-naphthoquinone analogs on PTEN-P2/GFP cell proliferation (WST-1 cell viability, 24 h); conditions: Mus musculus, WST-1, medium with 10% FBS and DHT, read-out: PTEN-P2/GFP cell proliferation, percent of control
Method in brief: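 PTEN-P2/GFP cells, 8000/well, in medium with 10% FBS and 10^−8M DHT, dosed next day with increasing analog concentrations (constant DMSO) for 24 h at 37 °C, 5% CO2. Viability read by WST-1 after 3 h at 37 °C, OD at 460 nm.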

For `O=C1C=C(Oc2c(F)cc(F)cc2F)C(=O)c2ccccc21` [Analog F04, 2-(2,4,6-trifluorophenoxy)-1,4-naphthoquinone], the “proliferation of human fibrosarcoma HT1080 cells, percent of control” value ([1]; 1.2 μM) was 87.77% of control, the “proliferation of human fibrosarcoma HT1080 cells, percent of control” value ([1]; 2.5 μM) was 81.64% of control and the “proliferation of human fibrosarcoma HT1080 cells, percent of control” value ([1]; 5 μM) was 78.43% of control. For the same compound, the “proliferation of human fibrosarcoma HT1080 cells, percent of control” value ([1]; 7.5 μM) was 84.86% of control, the “proliferation of human fibrosarcoma HT1080 cells, percent of control” value ([1]; 10 μM) was 76.41% of control and the “proliferation of human fibrosarcoma HT1080 cells, percent of control” value ([1]; 15 μM) was 69.17% of control. The “proliferation of human fibrosarcoma HT1080 cells, percent of control” value ([1]; 20 μM) was 63.51% of control, the “human SKBR-3 cell proliferation, percent of control” value ([2]; 1.2 μM) was 86.74% of control and the “human SKBR-3 cell proliferation, percent of control” value ([2]; 2.5 μM) was 83.72% of control. For the same compound, the “human SKBR-3 cell proliferation, percent of control” value ([2]; 5 μM) was 74.38% of control, the “human SKBR-3 cell proliferation, percent of control” value ([2]; 7.5 μM) was 65.90% of control and the “human SKBR-3 cell proliferation, percent of control” value ([2]; 10 μM) was 7.52% of control. For the same compound, the “human SKBR-3 cell proliferation, percent of control” value ([2]; 15 μM) was 1.20% of control, the “human SKBR-3 cell proliferation, percent of control” value ([2]; 20 μM) was 1.90% of control and the activity at 1.2 µM [3] was 101%. It also gave an activity at 2.5 µM [3] of 101%, an activity at 5 µM [3] of 83.3% and an activity at 7.5 µM [3] of 17.6%. The activity at 10 µM [3] was 2.09%, the activity at 15 µM [3] was 1.47% and the activity at 20 µM [3] was 2.64%.

For `COc1ccc(OC2=CC(=O)c3ccccc3C2=O)cc1` [Analog F05, 2-(4-methoxyphenoxy)-1,4-naphthoquinone], the “proliferation of human fibrosarcoma HT1080 cells, percent of control” value ([1]; 1.2 μM) was 81.04% of control, the “proliferation of human fibrosarcoma HT1080 cells, percent of control” value ([1]; 2.5 μM) was 76.27% of control and the “proliferation of human fibrosarcoma HT1080 cells, percent of control” value ([1]; 5 μM) was 67.81% of control. For the same compound, the “proliferation of human fibrosarcoma HT1080 cells, percent of control” value ([1]; 7.5 μM) was 67.85% of control, the “proliferation of human fibrosarcoma HT1080 cells, percent of control” value ([1]; 10 μM) was 66.08% of control and the “proliferation of human fibrosarcoma HT1080 cells, percent of control” value ([1]; 15 μM) was 55.00% of control. The “proliferation of human fibrosarcoma HT1080 cells, percent of control” value ([1]; 20 μM) was 56.04% of control, the “human SKBR-3 cell proliferation, percent of control” value ([2]; 1.2 μM) was 151.35% of control and the “human SKBR-3 cell proliferation, percent of control” value ([2]; 2.5 μM) was 144.41% of control. The “human SKBR-3 cell proliferation, percent of control” value ([2]; 5 μM) was 120.15% of control, the “human SKBR-3 cell proliferation, percent of control” value ([2]; 7.5 μM) was 94.14% of control and the “human SKBR-3 cell proliferation, percent of control” value ([2]; 10 μM) was 17.05% of control. The “human SKBR-3 cell proliferation, percent of control” value ([2]; 15 μM) was 1.91% of control, the “human SKBR-3 cell proliferation, percent of control” value ([2]; 20 μM) was 2.99% of control and the activity at 1.2 µM [3] was 102%. For the same compound, the activity at 2.5 µM [3] was 113%, the activity at 5 µM [3] was 56.1% and the activity at 7.5 µM [3] was 8.83%. It also gave an activity at 10 µM [3] of 1.32%, an activity at 15 µM [3] of 0.77% and an activity at 20 µM [3] of 3.41%.

`O=C1C=C(Oc2ccc(OCc3ccccc3)cc2)C(=O)c2ccccc21` [Analog F06, 2-(4-(benzyloxy)phenoxy)-1,4-naphthoquinone] was tested, and the “proliferation of human fibrosarcoma HT1080 cells, percent of control” value ([1]; 1.2 μM) was 82.93% of control, the “proliferation of human fibrosarcoma HT1080 cells, percent of control” value ([1]; 2.5 μM) was 81.12% of control and the “proliferation of human fibrosarcoma HT1080 cells, percent of control” value ([1]; 5 μM) was 80.24% of control. For the same compound, the “proliferation of human fibrosarcoma HT1080 cells, percent of control” value ([1]; 7.5 μM) was 81.24% of control, the “proliferation of human fibrosarcoma HT1080 cells, percent of control” value ([1]; 10 μM) was 50.19% of control and the “proliferation of human fibrosarcoma HT1080 cells, percent of control” value ([1]; 15 μM) was 49.19% of control. For the same compound, the “proliferation of human fibrosarcoma HT1080 cells, percent of control” value ([1]; 20 μM) was 46.81% of control, the “human SKBR-3 cell proliferation, percent of control” value ([2]; 1.2 μM) was 152.32% of control and the “human SKBR-3 cell proliferation, percent of control” value ([2]; 2.5 μM) was 147.42% of control. The “human SKBR-3 cell proliferation, percent of control” value ([2]; 5 μM) was 134.16% of control, the “human SKBR-3 cell proliferation, percent of control” value ([2]; 7.5 μM) was 151.41% of control and the “human SKBR-3 cell proliferation, percent of control” value ([2]; 10 μM) was 136.66% of control. The “human SKBR-3 cell proliferation, percent of control” value ([2]; 15 μM) was 125.96% of control, the “human SKBR-3 cell proliferation, percent of control” value ([2]; 20 μM) was 21.95% of control and the activity at 1.2 µM [3] was 99.8%. For the same compound, the activity at 2.5 µM [3] was 99.8%, the activity at 5 µM [3] was 105% and the activity at 7.5 µM [3] was 106%. For the same compound, the activity at 10 µM [3] was 108%, the activity at 15 µM [3] was 99.2% and the activity at 20 µM [3] was 79.9%.

With `Cc1cc(Cl)ccc1OC1=CC(=O)c2ccccc2C1=O` [Analog F07, 2-(4-chloro-2-methylphenoxy)-1,4-naphthoquinone] the “proliferation of human fibrosarcoma HT1080 cells, percent of control” value ([1]; 1.2 μM) was 85.35% of control, the “proliferation of human fibrosarcoma HT1080 cells, percent of control” value ([1]; 2.5 μM) was 89.16% of control and the “proliferation of human fibrosarcoma HT1080 cells, percent of control” value ([1]; 5 μM) was 76.04% of control. The “proliferation of human fibrosarcoma HT1080 cells, percent of control” value ([1]; 7.5 μM) was 68.43% of control, the “proliferation of human fibrosarcoma HT1080 cells, percent of control” value ([1]; 10 μM) was 69.89% of control and the “proliferation of human fibrosarcoma HT1080 cells, percent of control” value ([1]; 15 μM) was 67.89% of control. For the same compound, the “proliferation of human fibrosarcoma HT1080 cells, percent of control” value ([1]; 20 μM) was 69.50% of control, the “human SKBR-3 cell proliferation, percent of control” value ([2]; 1.2 μM) was 143.50% of control and the “human SKBR-3 cell proliferation, percent of control” value ([2]; 2.5 μM) was 160.12% of control. For the same compound, the “human SKBR-3 cell proliferation, percent of control” value ([2]; 5 μM) was 131.48% of control, the “human SKBR-3 cell proliferation, percent of control” value ([2]; 7.5 μM) was 68.35% of control and the “human SKBR-3 cell proliferation, percent of control” value ([2]; 10 μM) was 12.78% of control. For the same compound, the “human SKBR-3 cell proliferation, percent of control” value ([2]; 15 μM) was 2.70% of control, the “human SKBR-3 cell proliferation, percent of control” value ([2]; 20 μM) was 6.29% of control and the activity at 2 µM ([3]; 2 μM) was 101%. The activity at 3 µM ([3]; 3 μM) was 102%, the activity at 4 µM ([3]; 4 μM) was 101% and the activity at 5 µM [3] was 96%. For the same compound, the activity at 6 µM ([3]; 6 μM) was 88.4%, the activity at 7 µM ([3]; 7 μM) was 81.8% and the activity at 10 µM [3] was 36.3%. For the same compound, the activity at 15 µM [3] was 19.4% and the activity at 25 µM ([3]; 25 μM) was 12.5%.
